Blank lines part the entries; values can stand above or below the compound they belong to.
Columns and labels:
[1] = biological target: 2-oxoglutarate:ferredoxin oxidoreductase (OGOR) of Aquifex aeolicus, five-subunit complex FORαβγδε (Aquifex aeolicus (endogenous in A. aeolicus VF5 cells)) (UniProt O67229); assay: native gel or EMSA; 3-12% Blue Native gel of elution fraction 2 of the Fd7Strep pull-down; in-gel PFOR and OGOR activity at roughly 300 kDa; proteins of the activity bands identified by mass spectrometry; for the self-association: dimer of the αβγδε protomer, from the estimated mass
[2] = biological target: T1, OGOR (2-oxoglutarate:ferredoxin oxidoreductase, Forαβγδε) (Aquifex aeolicus, UniProt O67229+O67230+O67231); assay: spectrophotometric methyl viologen reduction at […] nm, enriched fraction; in-gel activity; assay type: biochemical; settings: 10 mM 2-oxoglutarate, 0.1 mM CoA, 0.2 mM TPP, 1 mM MgCl2, 5 mM methyl viologen, pH 8, 80 °C, anaerobic; decarboxylation direction
T1 construct: gene forA2; native, enriched from soluble fraction (DEAE, then Bio-Gel HTP); dimer of pentamers (αβγδε)2, about 250-300 kDa; Aq_1163 may co-migrate; with 2-oxoglutarate:ferredoxin oxidoreductase subunit epsilon (ferredoxin-like, Fd2); 2-oxoglutarate:ferredoxin oxidoreductase subunit delta
T1 sequence (O67229 1-389): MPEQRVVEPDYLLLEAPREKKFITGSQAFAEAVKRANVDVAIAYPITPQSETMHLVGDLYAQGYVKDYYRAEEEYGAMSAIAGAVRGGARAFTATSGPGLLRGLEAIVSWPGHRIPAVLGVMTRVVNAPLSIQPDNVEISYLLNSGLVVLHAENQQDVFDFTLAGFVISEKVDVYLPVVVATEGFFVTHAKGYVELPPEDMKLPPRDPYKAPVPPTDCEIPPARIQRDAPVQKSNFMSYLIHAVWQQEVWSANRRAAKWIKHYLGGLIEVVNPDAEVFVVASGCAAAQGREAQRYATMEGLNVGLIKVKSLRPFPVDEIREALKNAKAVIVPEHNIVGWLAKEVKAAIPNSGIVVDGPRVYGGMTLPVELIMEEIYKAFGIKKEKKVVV
T1 sequence (O67230 1-289): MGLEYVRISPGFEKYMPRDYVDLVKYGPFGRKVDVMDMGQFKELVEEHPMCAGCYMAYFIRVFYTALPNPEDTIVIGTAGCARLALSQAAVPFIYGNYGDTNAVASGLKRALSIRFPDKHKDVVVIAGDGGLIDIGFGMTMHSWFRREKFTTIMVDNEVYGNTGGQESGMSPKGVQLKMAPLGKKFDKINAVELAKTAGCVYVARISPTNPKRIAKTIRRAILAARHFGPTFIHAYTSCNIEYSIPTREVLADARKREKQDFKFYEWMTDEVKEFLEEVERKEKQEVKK
T1 sequence (O67231 1-230): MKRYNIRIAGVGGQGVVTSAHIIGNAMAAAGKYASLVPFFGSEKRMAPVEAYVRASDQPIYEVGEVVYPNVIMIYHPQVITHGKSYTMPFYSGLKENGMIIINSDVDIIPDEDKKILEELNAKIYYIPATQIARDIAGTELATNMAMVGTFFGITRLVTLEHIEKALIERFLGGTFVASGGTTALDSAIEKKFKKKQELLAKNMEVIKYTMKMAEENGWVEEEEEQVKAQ
T1 sequence (O67228 29-244 partner limits assumed): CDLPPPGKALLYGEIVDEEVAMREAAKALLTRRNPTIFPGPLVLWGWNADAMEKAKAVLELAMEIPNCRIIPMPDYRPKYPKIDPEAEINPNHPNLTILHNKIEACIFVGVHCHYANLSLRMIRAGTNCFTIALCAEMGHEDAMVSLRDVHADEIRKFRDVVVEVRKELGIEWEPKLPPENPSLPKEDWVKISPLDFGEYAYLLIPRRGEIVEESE
T1 sequence (O67232 whole entry partner): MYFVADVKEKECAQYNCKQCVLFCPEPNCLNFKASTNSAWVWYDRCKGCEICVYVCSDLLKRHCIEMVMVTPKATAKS

[3] = biological target: T2, Fd7Strep (recombinant ferredoxin 7) (Aquifex aeolicus, UniProt Z9T2O6C3G9); assay: EPR spectroscopy and UV-visible absorption; assay type: binding; settings: purified protein, dithionite-reduced, […] K
T2 construct: full length with C-terminal Strep-tag II, expressed in E. coli MG1655 ΔiscR; native protein 80 residues, apoprotein 9130 Da; native N-terminus […]
T2 sequence (Z9T2O6C3G9 1-80): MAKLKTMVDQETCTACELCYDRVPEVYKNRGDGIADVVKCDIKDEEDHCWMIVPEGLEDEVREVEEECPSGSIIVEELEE

[4] = biological target: T3, PFOR (pyruvate:ferredoxin oxidoreductase, Porαβγδε) (Aquifex aeolicus, UniProt O67254+O67255+O67256); assay: spectrophotometric methyl viologen reduction at […] nm, enriched fraction; in-gel activity; assay type: biochemical; settings: 10 mM pyruvate, 0.1 mM CoA, 0.2 mM TPP, 1 mM MgCl2, 5 mM methyl viologen, pH 8, 80 °C, anaerobic; decarboxylation direction
T3 construct: gene forA1; native, enriched from soluble fraction (DEAE step); dimer of pentamers (αβγδε)2, about 250-300 kDa; with pyruvate:ferredoxin oxidoreductase subunit epsilon (ferredoxin-like, Fd3); pyruvate:ferredoxin oxidoreductase subunit delta
T3 sequence (O67255 entry or part of it): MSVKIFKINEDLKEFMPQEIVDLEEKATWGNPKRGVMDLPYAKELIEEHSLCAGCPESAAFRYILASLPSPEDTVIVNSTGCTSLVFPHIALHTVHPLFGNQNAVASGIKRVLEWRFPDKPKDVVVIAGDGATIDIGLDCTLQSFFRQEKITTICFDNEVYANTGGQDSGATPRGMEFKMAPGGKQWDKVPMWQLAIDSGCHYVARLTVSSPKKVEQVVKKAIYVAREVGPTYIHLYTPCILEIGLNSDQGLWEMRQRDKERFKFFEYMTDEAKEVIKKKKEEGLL
T3 sequence (O67254 entry or part of it): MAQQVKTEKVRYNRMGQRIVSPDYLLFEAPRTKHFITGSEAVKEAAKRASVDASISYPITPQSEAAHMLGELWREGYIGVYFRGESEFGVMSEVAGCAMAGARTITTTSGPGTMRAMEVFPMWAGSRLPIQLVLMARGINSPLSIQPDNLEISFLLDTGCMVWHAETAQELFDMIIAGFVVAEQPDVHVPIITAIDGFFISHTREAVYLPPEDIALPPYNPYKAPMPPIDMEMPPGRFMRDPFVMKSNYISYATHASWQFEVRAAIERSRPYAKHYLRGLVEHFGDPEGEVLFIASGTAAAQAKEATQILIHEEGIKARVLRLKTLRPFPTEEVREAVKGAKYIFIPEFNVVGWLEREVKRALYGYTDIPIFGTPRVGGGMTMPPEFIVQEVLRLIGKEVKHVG
T3 sequence (O67256 entry or part of it): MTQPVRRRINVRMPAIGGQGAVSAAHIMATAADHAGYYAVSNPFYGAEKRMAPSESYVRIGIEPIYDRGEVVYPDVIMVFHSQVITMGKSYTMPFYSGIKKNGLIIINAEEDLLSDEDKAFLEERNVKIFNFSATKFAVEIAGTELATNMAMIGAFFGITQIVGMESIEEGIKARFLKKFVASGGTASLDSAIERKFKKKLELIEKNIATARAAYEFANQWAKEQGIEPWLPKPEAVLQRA
T3 sequence (O67251 whole entry, further chain): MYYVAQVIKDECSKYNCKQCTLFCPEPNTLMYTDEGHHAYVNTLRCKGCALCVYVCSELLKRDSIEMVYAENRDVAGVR
T3 sequence (O67252 entry or part of it, further chain): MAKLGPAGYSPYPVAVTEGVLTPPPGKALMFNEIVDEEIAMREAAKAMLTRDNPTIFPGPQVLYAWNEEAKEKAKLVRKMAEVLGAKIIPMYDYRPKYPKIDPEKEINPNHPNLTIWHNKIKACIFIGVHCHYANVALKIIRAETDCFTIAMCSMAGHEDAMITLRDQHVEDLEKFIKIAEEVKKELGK

[5] = biological target: pyruvate:ferredoxin oxidoreductase (PFOR) of Aquifex aeolicus, five-subunit complex PORαβγδε (Aquifex aeolicus (endogenous in A. aeolicus VF5 cells)) (UniProt O67254); assay: native gel or EMSA; 3-12% Blue Native gel of elution fraction 2 of the Fd7Strep pull-down; in-gel PFOR and OGOR activity at roughly 300 kDa; proteins of the activity bands identified by mass spectrometry; for the self-association: dimer of the αβγδε protomer, from the estimated mass

stoichiometry N [1]: 2
Compound: 2-oxoglutarate:ferredoxin oxidoreductase (OGOR) of Aquifex aeolicus, five-subunit complex FORαβγδε (from UniProt O67229 1-389; O67230 1-289; O67231 1-230; O67232 1-78; O67228 1-244)

Compound: O=C(O)CCC(=O)C(=O)O [2-oxoglutarate]
spectrophotometric methyl viologen reduction at 604 nm, enriched fraction; in-ge [2]: pyruvate for PFOR and 2-oxoglutarate for OGOR

Compound: [S]12[Fe]3[S]4[Fe]1[S]1[Fe]2[S]3[Fe]41 [[4Fe-4S] cluster]
EPR spectroscopy and UV-visible absorption [3]: confirming the presence of one [4Fe-4S] center per Fd molecule

Compound: CC(=O)C(=O)O [pyruvate]
spectrophotometric methyl viologen reduction at 604 nm, enriched fraction; in-ge [4]: pyruvate for PFOR and 2-oxoglutarate for OGOR

stoichiometry N [5]: 2
Compound: pyruvate:ferredoxin oxidoreductase (PFOR) of Aquifex aeolicus, five-subunit complex PORαβγδε (from UniProt O67254 1-404; O67255 1-286; O67256 1-241; O67251 1-79; O67252 1-189)

Source: article PMC10052474, “Carbon Fixation in the Chemolithoautotrophic Bacterium Aquifex aeolicus Involves Two Low-Potential Ferredoxins as Partners of the PFOR and OGOR Enzymes” (Life, 2023)
